Values after ≈ are worked out from the molar mass of the structure shown.
How the values were obtained:
[1] = tested on: Seasonal influenza A/Egypt/NRC098/2019(H1N1); assay: microbe, parasite or virus in culture; format: cell-based, seasonal human influenza A/H1N1 virus; conditions: H1N1, MDCK, in Homo sapiens
neuraminidase = assay: Colorimetric neuraminidase inhibition assay; format: biochemical

## CC1=C2[C@H]3OC(=O)[C@@H](C)[C@@H]3CC[C@@]2(C)C=CC1=O [santonin]
[1]
  IC50: 2.91 µg/mL (≈ 11.8 µM)
neuraminidase; all tested concentrations (10 mM to 1 μM), compared to zanamivir
  neuraminidase inhibition activity (in words): dose-dependant neuraminidase inhibition activities
neuraminidase; following treatment with 1 μM
  neuraminidase activity: 0.65 ± 0.18 units/mL
neuraminidase; following treatment with 10 μM
  neuraminidase activity: 0.42 ± 0.08 units/mL
neuraminidase; following treatment with 100 μM
  neuraminidase activity: 0.41 ± 0.06 units/mL
neuraminidase; following treatment with 1 mM
  neuraminidase activity: 0.35 ± 0.11 units/mL
neuraminidase; following treatment with 10 mM
  neuraminidase activity: 0.14 ± 0.097 units/mL
MDCK cells
  toxic effect in MDCK cells (in words): slightly toxic effect
